These results are taken from US8344180B2, “Hydrazine amide derivative” (Shionogi & Co., Ltd., priority 2006, dated 2013).

The target of this experiment is T1, human NPY Y5 receptor (Homo sapiens, UniProt Q15761).
T1 construct: expressed in transfected cells; membranes used
T1 sequence (Q15761 1-445): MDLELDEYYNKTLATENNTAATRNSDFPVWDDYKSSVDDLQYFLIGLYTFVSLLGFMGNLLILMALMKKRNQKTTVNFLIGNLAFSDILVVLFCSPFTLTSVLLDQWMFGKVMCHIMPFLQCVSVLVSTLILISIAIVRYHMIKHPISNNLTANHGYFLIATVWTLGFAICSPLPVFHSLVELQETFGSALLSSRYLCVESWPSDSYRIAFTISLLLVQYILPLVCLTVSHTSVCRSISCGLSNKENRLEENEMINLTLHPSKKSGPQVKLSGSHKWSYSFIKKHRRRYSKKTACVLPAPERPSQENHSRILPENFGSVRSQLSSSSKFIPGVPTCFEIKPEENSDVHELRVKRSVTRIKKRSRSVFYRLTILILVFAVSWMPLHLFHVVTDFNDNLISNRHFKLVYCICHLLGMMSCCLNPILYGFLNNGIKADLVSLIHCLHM
As to the kind of experiment: Affinity for NPY Y5 receptor ([125I] peptide YY binding to CHO cell membranes). The conditions noted are these: membranes from CHO cells expressing NPY Y5 receptor; [125I] peptide YY 60 pM; 25° C., 2 hours; read-out: 50% inhibitory concentration of the test-compound against the specific peptide YY binding (IC50 value). The source says:
Experiment 1: Affinity for NPY Y5 Receptor
cDNA sequence encoding a human NPY Y5 receptor (WO96/16542) was cloned in a vector pME18S (Takebe et al. Mol. Cell. Biol. 8, 8957). The obtained expression vector was transfected into CHO cells as a host by using Lipofect AMINE reagent (Trademark, Gibco BRL Co., Ltd.) according to the instruction manual. The cells that stably express NPY Y5 receptor were obtained.
The membranes prepared from the CHO cells expressing NPY Y5 receptor, the compound of the present invention and 30,000 cpm [^125I] peptide YY (60 pM of final concentration: Amersham) were incubated in the assay buffer (20 mM HEPES-Hanks buffer containing 0.1% bovine serum albumin, pH 7.4) at 25° C. for 2 hours, and then the membrane was filtered from the mixture through a glassfilter (GF/C) presoaked with 1% polyethyleneimine. After washing with 50 mM Tris-HCl buffer (pH 7.4), radioactivity retained on the filters was quantified with a gamma counter. Nonspecific binding was defined as the amount of radioactivity bound to the membranes after incubation in the presence of 200 nM of peptide YY. The 50% inhibitory concentration of the test-compound against the specific peptide YY binding (IC50 value) was calculated (Inui, A. et al. Endocrinology 131, 2090-2096 (1992)).

In the case of `CC(C)(C)S(=O)(=O)N[C@H]1CC[C@H](C(=O)NNc2ccc(Cl)c(Cl)c2)CC1` [Example I-4], the IC50 is 2.3 nM.
`CC(C)S(=O)(=O)N[C@H]1CC[C@H](C(=O)NNc2ccc(Cl)c(Cl)c2)CC1` [Example I-8]: the IC50 is 1.1 nM.
For the compound `CC(C)(C)S(=O)(=O)N[C@H]1CC[C@H](C(=O)NNc2cccc3ccccc23)CC1` [Example I-17], the IC50 worked out at 0.88 nM.
As to `CC(C)(C)S(=O)(=O)N[C@H]1CC[C@H](C(=O)NNc2cccc(-c3ccccc3)c2)CC1` [Example I-23], the IC50 was 1.12 nM.
